Where no end group is shown, it is not given here.
Tests used:
[1] = system: CaOV3 ovarian cancer cell line; experiment: Induction of apoptosis (APO-ONE caspase 3/7) and cell viability (CellTiter Blue); type: cell-based, human; set-up: key to Decline in cell viability: decreased (+); or not (−)
Method: CAOV-3 was cultured in Dulbecco's Modified Eagle Medium (4.5 g/L glucose) with 4 mM L-glutamine, 1.5 g/L sodium bicarbonate and 10% (v/v) fetal bovine serum.
(§1) The levels of apoptotic induction and cell viability were determined by multiplexing the measurements for single samples. CellTiter Blue and APO-ONE assay systems from Promega allows the determination of cell viability correlated to cell number, and induction of apoptosis. This protocol uses a fluorgenic peptide that contains a peptide recognition-sequence for caspase 3 and caspase 7, […] proteolytic enzymes of the apoptosis cascade. The CellTiter Blue reagent was added to wells in a 96-well plate containing cells under test, immediately after addition of peptide solution or vehicle. About 5000 cells were plated into the wells the day before. At the chosen time (Day 1, Day 2 etc.) the fluorescence was measured at 590 nm (emission) after excitation at 560 nm. The caspase 3/7 activity was measured (485 nm Ex/527 nm Em) in the same wells after adding 120 uL of the Apo-ONE reagent, freeze fracturing at −80° C. for 1 hr, and incubating for 1 hr at room temperature.
(§2) For this work, the concentrations of SorC13 and SorC27 used were 0 uM, 1 uM, 10 uM and 100 uM. The experiments extended over a 5 to 7 day period. All measurements were done in quadruplicate with both a blank (no cells) and control (vehicle, no peptide) used to correct the test measurements. The time-response data, and the dose-response data were plotted as means±standard error of the mean. Any statistical comparisons were done with the Student's t-test or by ANOVA analysis over the dose course. The level of statistical significance was considered to be the 95% confidence interval (i.e., p≤0.05).
To compare the effect of the two SorC-peptides against the gold-standard treatment for ovarian cancers SorC13 or SorC27 was compared to treatment with a carboplatin and taxol (CAT) cocktail (10 uM Paclitaxel, 20 mM carboplatin) using the APO-ONE assay, which measures the combined activities of caspase 3 and caspase 7. […]

[2] = system: OVCAR3 ovarian cancer cell line; experiment: as above; type: cell-based, human; set-up: key to Decline in cell viability: decreased (+); or not (−); conditions: for apoptosis (treatment:control ratio) compared with CAT cocktail: CAT = 10 uM Paclitaxel, 20 mM carboplatin
Method: OVCAR-3 was cultured in RPMI 1640 medium supplemented with 1.0 mM sodium pyruvate, 0.01 mg/mL insulin and 10% (v/v) fetal bovine serum.
as §1, §2
(§3) To compare the effect of the two SorC-peptides against the gold-standard treatment for ovarian cancers SorC13 or SorC27 was compared to treatment with a carboplatin and taxol (CAT) cocktail (10 uM Paclitaxel, 20 mM carboplatin) using the APO-ONE assay, which measures the combined activities of caspase 3 and caspase 7. Because of the mixed treatment (CAT), the effects were compared in terms of the ratio of treatment:control. If no effect was noted then the ratio=1. Comparisons of the treatment:control ratios were examined with the Student's t-test at a confidence level of 95%. Ratios of larger than a value of unity indicated a positive effect. The effects are illustrated in FIG. 5.

[3] = system: OV90 ovarian cancer cell line; experiment: as above; type: cell-based, human; set-up: key to Decline in cell viability: decreased (+); or not (−)
Method: OV-90 was cultured in a 1:1 mixture of MCDB 105 medium and Medium 199 supplemented with 15% (v/v) fetal bovine serum.
as §1, §2, §3

[4] = system: T47D breast cancer xenografts; experiment: T-47D breast cancer xenograft, SorC13 with Paclitaxel (Example 27); type: in vivo, NOD/SCID mice
Method: Tumor volumes (V) were calculated by caliper measurement using standard measurements of the width (W), length (L) and thickness (T) of tumors. Animals were randomized into treatment groups so that the median tumor volumes of each group were similar at the start of dosing. Percentage ΔT/ΔC values, as a measure of efficacy, were determined where ΔC refers to change in volume of control or untreated tumor, and ΔT refers to change in volume of treated tumor.
Animals were intraperitoneally (i.p.) injected with the vehicular control, or the low, medium or high doses of CAT or CAT and SorC13. Mice received low medium or high doses of CAT or CAT and SorC13 by i.p. injection every day for 12 days or CAT injections as set out in Table 10. Paclitaxel was injected first, followed by carboplatin 30 minutes later and then SorC13. The tumor volume and body weights were measured every day. As well, general health of the animals was monitored every day.
The human […] breast cancer cell line T-47D (ATCC #HTB-133), was cultured in growth media prepared with ATCC complete growth medium. The base medium for the T-47D cell line is ATCC-formulated RPMI-1640 Medium. The complete growth medium is supplemented with 0.2 Units/ml bovine insulin and fetal bovine serum to a final concentration of 10% (v/v). Cells were cultured at 37° C. in an atmosphere of 95% air and 5% carbon dioxide with sub-culturing done according to ATCC guidelines.
The cell preparation, formulation, implantation, measurement and treatment procedures were otherwise as described in Example 26 and Table 10 but with Paclitaxel at low (6 mg/kg), medium (10 mg/kg) and high (16 mg/kg) doses.

K-562 = experiment: Apoptosis and cell viability in CML cell line (Example 12); type: cell-based, human; conditions: 0, 10 and 100 uM, 5 to 7 days
Method: For this work, the concentrations of SorC13 and SorC27 used are 0 uM, 10 uM and 100 uM. The experiments extend over a 5 to 7 day period. All measurements are done in quadruplicate with both a blank (no cells) and control (vehicle, no peptide) used to correct the test measurements. The time-response data, and the dose-response data are plotted as means±standard error of the mean.
The cell line K-562 (from ATCC CCL-243) is grown under the recommended conditions and in culture media recommended by ATCC. The cell lines were cultured under sterile conditions at 37° C., in a humidified 5% CO2 atmosphere.
Induction of apoptosis and attendant decrease is observed in cell viability in the cancer cell lines. From the large increases in the activities of the caspase 3/7 activity, it is clear that there is a time dependent effect and a dose dependent effect on the induction of apoptosis.

[5] = Physiological effects after i.v. injection into CD1 mice (blood pressure, heart rate, neurological/behavioral); type: in vivo
Method: After in vivo i.v. injection into CD1 mice, SorC13 caused a small spike (approximately 25%) in blood pressure in the first 15 min which disappeared by 1 hour.

[6] = CAT = 10 uM Paclitaxel, 20 mM carboplatin

Sequence: KEFLHPSKVDLPR [SorC13, KEFLHPSKVDLPR]
- apoptosis (treatment:control ratio) compared with CAT cocktail [1, 6]: produced earlier and more intense apoptosis cascade than the CAT cocktail
- Apoptosis Index (1 = no effect) ([1]; Day5, SorC13 100 uM): 2.7
- Decline in cell viability ([1]; Day5, SorC13 100 uM): +
- apoptosis (treatment:control ratio) compared with CAT cocktail [2]: produced earlier and more intense apoptosis cascade than the CAT cocktail
- Apoptosis Index (1 = no effect) ([2]; Day 4, SorC13 100 uM): 1.4
- Apoptosis Index (1 = no effect) ([2]; Day 5, SorC13 100 uM): 1.7
- Decline in cell viability ([2]; Day 5, SorC13 100 uM): +
- apoptosis (treatment:control ratio) compared with CAT cocktail [3, 6]: produced earlier and more intense apoptosis cascade than the CAT cocktail
- % ΔT/ΔC (tumor volume normalized to control) ([4]; Day 6, SorC13 300 mg/kg): 66.0%
- % ΔT/ΔC (tumor volume normalized to control) ([4]; Day 12, SorC13 300 mg/kg): 1.0%
- % ΔT/ΔC (tumor volume normalized to control) ([4]; Day 18 (rest period), SorC13 300 mg/kg): 54.5%
- % ΔT/ΔC (tumor volume normalized to control) ([4]; Day 24 (rest period), SorC13 300 mg/kg): 48.7%
- Mean tumour volume ([4]; after 12-day rest post-treatment, SorC13 300 mg/kg): 55.76 mm^3
- Mean tumor volume ([4]; day 12 of treatment, SorC13 300 mg/kg i.p. daily): 43.61 mm^3
- induction of apoptosis and cell viability (K-562): induces apoptosis and decreases cell viability

Sequence: EGKLSSNDTEGGLCKEFLHPSKVDLPR [SorC27]
- Physiol. effects in vivo (mice) @ 5 mg/kg ([5]; 5 mg/kg): None observed over 72 hr
- change in blood pressure or heart rate ([5]; i.v., 1 hour measurement period): no change in blood pressure or heart rate
- neurological/behavioral changes ([5]; i.v., over 72 hours): no also neurological/behavioral changes
- apoptosis (treatment:control ratio) compared with CAT cocktail [2]: produced apoptosis sooner and more intensely than the CAT cocktail
- Apoptosis Index (1 = no effect) ([2]; Day 3, SorC27 10 uM): 2.2
- Apoptosis Index (1 = no effect) ([2]; Day 3, SorC27 100 uM): 2.2
- Apoptosis Index (1 = no effect) ([2]; Day 5, SorC27 10 uM): 4.1
- Apoptosis Index (1 = no effect) ([2]; Day 5, SorC27 100 uM): 6.3
- Decline in cell viability ([2]; SorC27): +
- Apoptosis Index (1 = no effect) ([3]; Day 2, SorC27 100 uM): 1.8
- Apoptosis Index (1 = no effect) ([3]; Day 3, SorC27 1 uM): 1.2
- Apoptosis Index (1 = no effect) ([3]; Day 3, SorC27 10 uM): 1.9
- Apoptosis Index (1 = no effect) ([3]; Day 3, SorC27 100 uM): 1.9
- Decline in cell viability ([3]; SorC27): +
- induction of apoptosis and cell viability (K-562): induces apoptosis and decreases cell viability

From US10058587B2, “Peptide composition for cancer treatment by inhibiting TRPV6 calcium channel activity” (priority 2008, dated 2018)
